For experiment [1], the target named is T1, CAC C23V/C58V/C89S/C136V/C155V/C283S (C-less) mutant (Rattus norvegicus, UniProt P97521, C136V/C155V/C23V/C283S/C58V/C89S).
T1 construct: made in house; host or cells: E. coli C0214
T1 sequence (P97521 1-301 C23V/C58V/C89S/C136V/C155V/C283S): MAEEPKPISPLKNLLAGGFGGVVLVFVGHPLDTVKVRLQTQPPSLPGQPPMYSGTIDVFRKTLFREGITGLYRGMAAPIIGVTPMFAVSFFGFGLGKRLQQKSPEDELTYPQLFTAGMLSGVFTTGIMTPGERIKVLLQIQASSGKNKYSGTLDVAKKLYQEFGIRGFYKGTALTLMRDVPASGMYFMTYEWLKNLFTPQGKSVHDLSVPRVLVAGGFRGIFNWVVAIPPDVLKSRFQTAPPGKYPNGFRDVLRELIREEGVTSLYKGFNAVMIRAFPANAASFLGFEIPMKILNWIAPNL
Put plainly: Transport assay in proteoliposomes, C-less CAC mutant. The format is biochemical. As for the experimental part: (§1) As previously described, the pMW7-WTratCAC recombinant plasmid was used for over-expressing the rat CAC [22]. The overlap extension method was used to introduce the mutations; in the main time, NdeI and HindIII restriction sites were also added using appropriate primers. The PCR products were purified by the QIAEX II Gel Extraction Kit (QIAGEN) and digested with NdeI and HindIII and then ligated into the pMW7. All mutations were verified by DNA sequencing. The resulting plasmid constructs were transformed into E. coli C0214. Overexpression, inclusion body fraction preparation, and purification of the CAC proteins were performed as previously described.
(§2) As previously described, recombinant CAC (WT and mutants) and ORC1 proteins were used for proteoliposome formation. For experiments with native CAC, ORC1, or ANT proteins, rat liver mitochondria, or HeLa cell mitochondria, the latter for the CAC alone, were first purified using the standard procedure of cell disruption and differential centrifugation. Then proteins were extracted using 3% Triton X-100 and reconstituted as described for the recombinant proteins. The concentration of intraliposomal carnitine and ornithine was 15 mM and 30 mM, respectively, in all samples.
(§3) To test the transport activity of the CAC, 550 μL of proteoliposomes was passed through a Sephadex G-75 column to remove the external substrate. Six hundred μL of the turbid eluate was collected, divided into samples of 100 μL each, and used for transport measurement by the inhibitor-stop method. Transport was started by adding 0.1 mM [^3H]carnitine ([^3H]ornitine or [^3H]ATP) to proteoliposome samples and stopped with 1.5 mM NEM (N-ethylmaleimide) at the indicated time interval. In the control samples, NEM was added with the labeled substrate at time zero. Transport rates were measured in 10 min, i.e., within the initial linear range of the time course, at 25 °C. After terminating the transport reaction, the external substrate was removed by chromatography on the Sephadex G-75 column, and the intraliposomal radioactivity was measured. The experimental values were corrected by subtracting the controls.
Figure 3 Identification of residue responsible for itaconate inhibition. (a) Dose–response analysis of the Cys mutants of CAC for the inhibition by itaconate was performed. Transport activity of the WT (○), C136A (●), C155A (Δ), C23V/C58V/C89S/C155V/C283S (▲), and C23V/C58V/C89S/C136V/C155V/C283S (□) was measured by adding 0.1 mM [^3H]carnitine after treatment by itaconate at the indicated concentrations. Transport activity (µmol/10 min/mg) is: WT 1.80 ± 0.31; C136A 0.91 ± 0.10; C155A 1.00 ± 0.17; C23V/C58V/C89S/C155V/C283S 1.02 ± 0.159; C23V/C58V/C89S/C136V/C155V/C283S 0.71 ± 0.22. (b) Dose–response analysis of proteoliposomes reconstituted native (○) or recombinant ORC (●) incubated with itaconate at the indicated concentrations. Transport activity was measured by adding 0.1 [^3H]ornithine, respectively, as described in Materials and Methods. The data are expressed as a percent of the controls (no addition of itaconate) and are means ± SD from three independent experiments.
Figure 4 Lysine contribution to CAC inhibition by itaconate. Protection of PLP (pyridoxal phosphate) from inhibition by itaconate on C-less CAC was carried out. C-less mutant (i.e., C23V/C58V/C89S/C136V/C155V/C283S) was reconstituted into proteoliposomes and treated or not treated with 30 mM PLP for 10 min (“Contr” or “PLP” column, respectively). […]

The target in a further experiment is T2, recombinant CAC (WT) (Rattus norvegicus, UniProt P97521).
T2 construct: made in house; host or cells: E. coli C0214
T2 sequence (P97521 1-301): T1 sequence (P97521 1-301 C23V/C58V/C89S/C136V/C155V/C283S) with V23C, V58C, S89C, V136C, V155C, S283C
Put plainly: [3H]carnitine/carnitine antiport in proteoliposomes reconstituted with recombinant WT CAC. The following applies: recombinant WT CAC, pH 6.5, 10 min incubation; read-out: IC50 for inhibition of transport at pH 6.5. The format is biochemical. As for the experimental part: as §1, §2, §3
Figure 1 Effect of itaconate on the native and recombinant mitochondrial carnitine/acylcarnitine (CAC). Dose–response analysis for itaconate inhibition was carried out using proteoliposomes reconstituted with native (○) or recombinant (●) CAC carriers. After 10 min of itaconate incubation, transport activity was started by adding 0.1 mM [^3H]carnitine and stopped after 10 min as described in Section 2. Percent of residual activity with respect to the control, without itaconate treatment, was reported. The values are the means ± SD from three independent experiments.
Figure 2 Effect of different pH on the inhibition of CAC protein by itaconate. (a) Proteoliposomes reconstituted with the recombinant CAC were incubated at various pHs (range pH 6.5–8.5) for 10 min with 10 mM itaconate. (b) Dose–response analysis of inhibition by itaconate of the recombinant CAC at pH 6.5. was performed. Proteoliposomes were incubated for 10 min at pH 6.5 with itaconate at the indicated concentrations. In both (a,b), the transport activity was measured for 10 min by adding to proteoliposomes 0.1 mM [^3H]carnitine.

Another experiment addresses T3, CAC from HeLa cells (Homo sapiens, UniProt O43772).
T3 construct: CAC from mitochondria protein extract of HeLa cells treated with 10 mM DMI or vehicle (control) was reconstituted in proteoliposomes; endogenous in cells; host or cells: HeLa cells
T3 sequence (O43772 1-301): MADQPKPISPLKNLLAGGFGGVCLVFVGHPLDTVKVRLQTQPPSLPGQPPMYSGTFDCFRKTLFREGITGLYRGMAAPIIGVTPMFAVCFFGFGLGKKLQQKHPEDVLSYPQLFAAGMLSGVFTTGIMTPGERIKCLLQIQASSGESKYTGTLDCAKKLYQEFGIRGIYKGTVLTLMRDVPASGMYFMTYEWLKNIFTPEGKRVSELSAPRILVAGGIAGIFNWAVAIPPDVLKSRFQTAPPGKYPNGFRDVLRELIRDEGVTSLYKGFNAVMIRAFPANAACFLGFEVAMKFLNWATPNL
Put plainly: HeLa cells treated with DMI, CAC extracted from mitochondria and reconstituted for transport assay. The format is cell-based. The conditions noted are these: 10 mM DMI, 45 min.
Excerpt: as §2
To test the transport activity of the CAC, 550 μL of proteoliposomes was passed through a Sephadex G-75 column to remove the external substrate. […] Transport rates were measured in 10 min, i.e., within the initial linear range of the time course, at 25 °C. After terminating the transport reaction, the external substrate was removed by chromatography on the Sephadex G-75 column, and the intraliposomal radioactivity was measured. […]
Figure 10 Effect of dimethyl itaconate (DMI) on CAC. […] Thus, the transport activity was measured for 10 min by adding to proteoliposomes 0.1 mM [^3H]carnitine. […] Transport activity in the presence or absence of DTE was measured as described in Materials and Methods. […]

The structures appear in SMILES notation. Positions count from the first letter of the chain named.

Broadly, the inhibition is the drop in the measured response relative to a control, in per cent. Low readings indicate a response near the control, high ones a response far below the control. Consider `Cc1ncc(COP(=O)(O)O)c(C=O)c1O` [PLP, pyridoxal 5′-phosphate, reference compound], for which, in experiment [1] (30 mM PLP for 10 min), the inhibition at 30000 µM is around 75%. In addition, the “reversibility of inhibition after removal of PLP by size exclusion chromatography (G-75)” value in experiment [1] (30 mM PLP, then G-75) is reported as “fully reversed”.
What is called IC50 is the concentration needed to halve the response being measured. On to `C=C(CC(=O)OC)C(=O)OC` [dimethyl itaconate], for which, at recombinant CAC (WT), the IC50 worked out at 20 ± 4.9 mM. The “CAC transport activity after treatment of cells” value at CAC from HeLa cells is reported as “strongly inhibited”. The “reversal of inhibition by DTE” value at CAC from HeLa cells (DTE in transport assay) is recorded as “could not be reversed”.

(Values after PMC10296061, “Inhibition of the Mitochondrial Carnitine/Acylcarnitine Carrier by Itaconate through Irreversible Binding to Cysteine 136: Possible Pathophysiological Implications” (Biomolecules, 2023).)
